{
  "source": "patent US20180353460A1",
  "about": "“METHODS OF TREATING UROLOGICAL DISORDERS USING SARMs” (priority 2014, published 2018)",
  "key": {"[1]": {"tested_on": "human subjects", "assay": "Safety profile from other clinical trials (treatment related adverse events)", "format": "in vivo", "procedure": "Described is the safety profile of Compound IX 3 mg PO daily in subjects with SUI. See Table 8 which is historical data from other clinical trials establishing the safety profile of Compound IX in human subjects. See also the lack of increase in endometrial thickness in Example 19.\nFor the PGI-S measure, 12 patients reported symptoms as “moderate” or “severe” at baseline; whereas only 3 patients reported “moderate” symptoms and no patients reported “severe” at 12 weeks (FIG. 12A).\nMean stress leaks decreased by 81 percent from baseline over 12 weeks (5.17 leaks/day at baseline to 1.0 leaks/day at week 12), and the reductions in daily stress leaks following completion of treatment have been sustained as subjects are being followed for up to 7 months post-treatment to assess the durability of treatment effect (0.63 leaks/day at 40 weeks (7 months post-treatment) in the first nine subjects). No subject has relapsed to their baseline levels. Urge urinary incontinence was also observed in 11 subjects, and Compound IX produced a 68% reduction from baseline over 12 weeks in these patients, which was also observed to be durable for at least 7 months (N=7). […] All were consistent with AR pharmacology and previous clinical trials with Compound IX. Based on the results from this Phase 2 proof-of-concept study with Compound IX, a randomized, placebo-controlled Phase 2 clinical trial to evaluate the change in frequency of daily stress urinary incontinence episodes following 12 weeks of treatment was initiated. The trial will evaluate the safety and efficacy of Compound IX (1 mg and 3 mg) compared with placebo in postmenopausal women with SUI."}, "[2]": {"tested_on": "levator ani muscle", "assay": "Earlier male rat model with castrate levels of serum testosterone", "format": "in vivo", "from_the_text": "Extensive clinical data related to the use of Compound IX are described below; however, there are both preclinical and clinical data supporting the specific investigation of Compound IX for the treatment of SUI. Among the preclinical findings are that Compound IX has androgenic and anabolic activity in male and female rat models. […] These studies together provide an approximation of the expected effect of Compound IX, since currently there are no data in female models regarding levator ani hypertrophy or stress urinary incontinence. […] Based upon these preclinical and clinical analyses, a significant growth/bulking of the levator ani in females with SUI was anticipated, which may also result in improvements in associated symptoms, and are therefore the focus of the study outlined herein."}},
  "data": [
    {"smiles": "C[C@](O)(COc1ccc(C#N)cc1)C(=O)Nc1ccc(C#N)c(C(F)(F)F)c1", "note": "[Compound IX, (S)—N-(4-Cyano-3-(trifluoromethyl)phenyl)-3-(4-cyanophenoxy)-2-hydroxy-2-methylpropanamide]", "values": [
      {"measurement": "Abdominal Pain, figure in parentheses (percent of subjects)", "setting": "[1]; N = 896", "result": "(0.8)"},
      {"measurement": "Abdominal Pain, number of subjects", "setting": "[1]; N = 896", "result": 7},
      {"measurement": "Alanine Aminotransferase Increased, figure in parentheses (percent of subjects)", "setting": "[1]; N = 896", "result": "(2.1)"},
      {"measurement": "Alanine Aminotransferase Increased, number of subjects", "setting": "[1]; N = 896", "result": 19},
      {"measurement": "Any Treatment Related Adverse Event, figure in parentheses (percent of subjects)", "setting": "[1]; N = 896", "result": "(24.4)"},
      {"measurement": "Any Treatment Related Adverse Event, number of subjects", "setting": "[1]; N = 896", "result": 219},
      {"measurement": "Back pain, figure in parentheses (percent of subjects)", "setting": "[1]; N = 896", "result": "(1.5)"},
      {"measurement": "Back pain, number of subjects", "setting": "[1]; N = 896", "result": 13},
      {"measurement": "Constipation, figure in parentheses (percent of subjects)", "setting": "[1]; N = 896", "result": "(1.3)"},
      {"measurement": "Constipation, number of subjects", "setting": "[1]; N = 896", "result": 12},
      {"measurement": "Diarrhea, figure in parentheses (percent of subjects)", "setting": "[1]; N = 896", "result": "(2.1)"},
      {"measurement": "Diarrhea, number of subjects", "setting": "[1]; N = 896", "result": 19},
      {"measurement": "Dizziness Postural, figure in parentheses (percent of subjects)", "setting": "[1]; N = 896", "result": "(0.6)"},
      {"measurement": "Dizziness Postural, number of subjects", "setting": "[1]; N = 896", "result": 5},
      {"measurement": "Dizziness, figure in parentheses (percent of subjects)", "setting": "[1]; N = 896", "result": "(2.0)"},
      {"measurement": "Dizziness, number of subjects", "setting": "[1]; N = 896", "result": 18},
      {"measurement": "Dyspnea, figure in parentheses (percent of subjects)", "setting": "[1]; N = 896", "result": "(0.9)"},
      {"measurement": "Dyspnea, number of subjects", "setting": "[1]; N = 896", "result": 8},
      {"measurement": "Fatigue, figure in parentheses (percent of subjects)", "setting": "[1]; N = 896", "result": "(0.9)"},
      {"measurement": "Fatigue, number of subjects", "setting": "[1]; N = 896", "result": 8},
      {"measurement": "Headache, figure in parentheses (percent of subjects)", "setting": "[1]; N = 896", "result": "(5.7)"},
      {"measurement": "Headache, number of subjects", "setting": "[1]; N = 896", "result": 51},
      {"measurement": "Hot Flush, figure in parentheses (percent of subjects)", "setting": "[1]; N = 896", "result": "(0.7)"},
      {"measurement": "Hot Flush, number of subjects", "setting": "[1]; N = 896", "result": 6},
      {"measurement": "Hyperhidrosis, figure in parentheses (percent of subjects)", "setting": "[1]; N = 896", "result": "(1.0)"},
      {"measurement": "Hyperhidrosis, number of subjects", "setting": "[1]; N = 896", "result": 9},
      {"measurement": "Insomnia, figure in parentheses (percent of subjects)", "setting": "[1]; N = 896", "result": "(0.6)"},
      {"measurement": "Insomnia, number of subjects", "setting": "[1]; N = 896", "result": 5},
      {"measurement": "Muscle Spasms, figure in parentheses (percent of subjects)", "setting": "[1]; N = 896", "result": "(0.7)"},
      {"measurement": "Muscle Spasms, number of subjects", "setting": "[1]; N = 896", "result": 6},
      {"measurement": "Myalgia, figure in parentheses (percent of subjects)", "setting": "[1]; N = 896", "result": "(0.7)"},
      {"measurement": "Myalgia, number of subjects", "setting": "[1]; N = 896", "result": 6},
      {"measurement": "Nausea, figure in parentheses (percent of subjects)", "setting": "[1]; N = 896", "result": "(3.0)"},
      {"measurement": "Nausea, number of subjects", "setting": "[1]; N = 896", "result": 27},
      {"measurement": "Pain in Extremity, figure in parentheses (percent of subjects)", "setting": "[1]; N = 896", "result": "(1.2)"},
      {"measurement": "Pain in Extremity, number of subjects", "setting": "[1]; N = 896", "result": 11},
      {"measurement": "Pruritus, figure in parentheses (percent of subjects)", "setting": "[1]; N = 896", "result": "(1.0)"},
      {"measurement": "Pruritus, number of subjects", "setting": "[1]; N = 896", "result": 9},
      {"measurement": "Rash, figure in parentheses (percent of subjects)", "setting": "[1]; N = 896", "result": "(0.6)"},
      {"measurement": "Rash, number of subjects", "setting": "[1]; N = 896", "result": 5},
      {"measurement": "Somnolence, figure in parentheses (percent of subjects)", "setting": "[1]; N = 896", "result": "(1.0)"},
      {"measurement": "Somnolence, number of subjects", "setting": "[1]; N = 896", "result": 9},
      {"measurement": "Vomiting, figure in parentheses (percent of subjects)", "setting": "[1]; N = 896", "result": "(1.3)"},
      {"measurement": "Vomiting, number of subjects", "setting": "[1]; N = 896", "result": 12},
      {"measurement": "general safety and tolerability", "setting": "[1]; about 1,200 individuals, doses 0.1 mg to 100 mg", "result": "generally safe and well tolerated"},
      {"measurement": "hypertrophy of the levator ani muscle", "setting": "[2]", "result": "approximately 120 % of an intact male"}
    ]}
  ]
}
